In ChEMBL document CHEMBL3259629, “Discovery and optimization of piperidyl-1,2,3-triazole ureas as potent, selective, and in vivo-active inhibitors of α/β-hydrolase domain containing 6 (ABHD6)” (J Med Chem, 2013):

What was measured:
Settings in all cases: Neuro2a, 3 nM
[1] = target: Dipeptidyl peptidase 9 (Mus musculus) (UniProt Q8BVG4)
Description: Inhibition of DPP9 in mouse Neuro2a cells at 3 nM after 4 hrs by ABPP-SILAC assay

[2] = target: T1, Acyl-coenzyme A thioesterase 2, mitochondrial (Mus musculus) (UniProt Q9QYR9)
T1 sequence (whole entry): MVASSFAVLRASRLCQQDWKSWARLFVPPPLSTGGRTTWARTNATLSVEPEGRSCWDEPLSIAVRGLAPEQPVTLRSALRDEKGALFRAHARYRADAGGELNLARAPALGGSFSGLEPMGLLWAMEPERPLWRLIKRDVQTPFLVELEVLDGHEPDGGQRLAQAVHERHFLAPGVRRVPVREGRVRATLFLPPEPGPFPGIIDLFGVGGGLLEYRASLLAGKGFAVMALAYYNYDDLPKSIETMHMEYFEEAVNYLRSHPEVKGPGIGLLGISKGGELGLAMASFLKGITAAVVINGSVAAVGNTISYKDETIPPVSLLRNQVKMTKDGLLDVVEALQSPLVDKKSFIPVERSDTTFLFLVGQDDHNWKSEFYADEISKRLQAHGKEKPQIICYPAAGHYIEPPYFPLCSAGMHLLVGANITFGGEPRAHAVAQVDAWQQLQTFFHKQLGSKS
Description: Inhibition of Acot2 in mouse Neuro2a cells at 3 nM after 4 hrs by ABPP-SILAC assay

[3] = target: Patatin-like phospholipase domain-containing protein 7 (Mus musculus) (UniProt A2AJ88)
Patatin-like phospholipase domain-containing protein 7 (Mus musculus), sequence (A2AJ88 whole entry, the tested form may be a part): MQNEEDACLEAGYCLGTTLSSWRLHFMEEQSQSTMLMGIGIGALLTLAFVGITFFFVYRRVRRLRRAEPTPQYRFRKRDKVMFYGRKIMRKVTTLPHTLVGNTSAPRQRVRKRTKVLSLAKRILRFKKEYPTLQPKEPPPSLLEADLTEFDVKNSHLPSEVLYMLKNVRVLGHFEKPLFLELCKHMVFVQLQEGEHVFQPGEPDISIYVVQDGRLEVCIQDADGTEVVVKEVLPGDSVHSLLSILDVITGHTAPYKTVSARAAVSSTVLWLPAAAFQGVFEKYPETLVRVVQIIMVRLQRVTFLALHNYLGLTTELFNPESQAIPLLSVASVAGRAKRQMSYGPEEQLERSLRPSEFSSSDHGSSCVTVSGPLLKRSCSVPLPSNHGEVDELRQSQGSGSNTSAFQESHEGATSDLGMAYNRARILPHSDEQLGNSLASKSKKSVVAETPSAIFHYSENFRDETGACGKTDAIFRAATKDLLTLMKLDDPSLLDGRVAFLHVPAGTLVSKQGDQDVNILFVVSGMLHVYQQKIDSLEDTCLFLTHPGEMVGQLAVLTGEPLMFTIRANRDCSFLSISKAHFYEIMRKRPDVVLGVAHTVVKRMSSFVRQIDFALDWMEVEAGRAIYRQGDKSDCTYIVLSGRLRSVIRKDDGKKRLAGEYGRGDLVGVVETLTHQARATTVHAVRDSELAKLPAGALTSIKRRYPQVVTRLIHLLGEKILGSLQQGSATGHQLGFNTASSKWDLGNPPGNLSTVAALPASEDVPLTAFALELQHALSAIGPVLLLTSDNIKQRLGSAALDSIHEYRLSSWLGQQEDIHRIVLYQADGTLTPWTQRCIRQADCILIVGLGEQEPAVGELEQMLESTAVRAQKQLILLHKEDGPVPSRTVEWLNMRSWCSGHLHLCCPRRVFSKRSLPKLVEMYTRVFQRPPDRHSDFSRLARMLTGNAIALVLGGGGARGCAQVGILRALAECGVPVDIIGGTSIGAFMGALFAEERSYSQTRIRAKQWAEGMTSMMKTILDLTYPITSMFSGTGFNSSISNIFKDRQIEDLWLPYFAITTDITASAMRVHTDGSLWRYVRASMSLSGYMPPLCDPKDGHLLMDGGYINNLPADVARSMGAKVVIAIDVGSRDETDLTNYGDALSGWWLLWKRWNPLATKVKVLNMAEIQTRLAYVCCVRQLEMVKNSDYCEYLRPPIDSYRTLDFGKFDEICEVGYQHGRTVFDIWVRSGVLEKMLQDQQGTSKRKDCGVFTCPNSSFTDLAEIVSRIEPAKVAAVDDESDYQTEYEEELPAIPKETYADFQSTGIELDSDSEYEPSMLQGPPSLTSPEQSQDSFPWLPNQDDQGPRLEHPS
Description: Inhibition of Pnpla7 in mouse Neuro2a cells at 3 nM after 4 hrs by ABPP-SILAC assay

[4] = target: T2, Lysosomal Pro-X carboxypeptidase (Mus musculus) (UniProt Q7TMR0)
T2 sequence (whole entry): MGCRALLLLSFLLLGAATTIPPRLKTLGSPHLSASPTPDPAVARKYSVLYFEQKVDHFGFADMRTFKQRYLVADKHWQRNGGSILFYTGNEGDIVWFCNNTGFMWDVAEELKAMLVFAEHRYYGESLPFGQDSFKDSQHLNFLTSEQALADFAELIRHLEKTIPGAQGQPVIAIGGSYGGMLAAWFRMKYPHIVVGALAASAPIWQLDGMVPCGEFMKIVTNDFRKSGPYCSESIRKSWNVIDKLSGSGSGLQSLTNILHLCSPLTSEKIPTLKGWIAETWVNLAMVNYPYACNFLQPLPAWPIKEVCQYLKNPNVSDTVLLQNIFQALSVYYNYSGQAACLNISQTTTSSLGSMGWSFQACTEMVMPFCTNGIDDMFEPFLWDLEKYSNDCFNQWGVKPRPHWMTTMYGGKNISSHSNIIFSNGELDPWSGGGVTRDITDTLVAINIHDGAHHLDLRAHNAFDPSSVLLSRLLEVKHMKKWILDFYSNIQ
Description: Inhibition of Prcp in mouse Neuro2a cells at 3 nM after 4 hrs by ABPP-SILAC assay

[5] = target: T3, Patatin-like phospholipase domain-containing protein 6 (Mus musculus) (UniProt Q3TRM4)
T3 sequence (whole entry): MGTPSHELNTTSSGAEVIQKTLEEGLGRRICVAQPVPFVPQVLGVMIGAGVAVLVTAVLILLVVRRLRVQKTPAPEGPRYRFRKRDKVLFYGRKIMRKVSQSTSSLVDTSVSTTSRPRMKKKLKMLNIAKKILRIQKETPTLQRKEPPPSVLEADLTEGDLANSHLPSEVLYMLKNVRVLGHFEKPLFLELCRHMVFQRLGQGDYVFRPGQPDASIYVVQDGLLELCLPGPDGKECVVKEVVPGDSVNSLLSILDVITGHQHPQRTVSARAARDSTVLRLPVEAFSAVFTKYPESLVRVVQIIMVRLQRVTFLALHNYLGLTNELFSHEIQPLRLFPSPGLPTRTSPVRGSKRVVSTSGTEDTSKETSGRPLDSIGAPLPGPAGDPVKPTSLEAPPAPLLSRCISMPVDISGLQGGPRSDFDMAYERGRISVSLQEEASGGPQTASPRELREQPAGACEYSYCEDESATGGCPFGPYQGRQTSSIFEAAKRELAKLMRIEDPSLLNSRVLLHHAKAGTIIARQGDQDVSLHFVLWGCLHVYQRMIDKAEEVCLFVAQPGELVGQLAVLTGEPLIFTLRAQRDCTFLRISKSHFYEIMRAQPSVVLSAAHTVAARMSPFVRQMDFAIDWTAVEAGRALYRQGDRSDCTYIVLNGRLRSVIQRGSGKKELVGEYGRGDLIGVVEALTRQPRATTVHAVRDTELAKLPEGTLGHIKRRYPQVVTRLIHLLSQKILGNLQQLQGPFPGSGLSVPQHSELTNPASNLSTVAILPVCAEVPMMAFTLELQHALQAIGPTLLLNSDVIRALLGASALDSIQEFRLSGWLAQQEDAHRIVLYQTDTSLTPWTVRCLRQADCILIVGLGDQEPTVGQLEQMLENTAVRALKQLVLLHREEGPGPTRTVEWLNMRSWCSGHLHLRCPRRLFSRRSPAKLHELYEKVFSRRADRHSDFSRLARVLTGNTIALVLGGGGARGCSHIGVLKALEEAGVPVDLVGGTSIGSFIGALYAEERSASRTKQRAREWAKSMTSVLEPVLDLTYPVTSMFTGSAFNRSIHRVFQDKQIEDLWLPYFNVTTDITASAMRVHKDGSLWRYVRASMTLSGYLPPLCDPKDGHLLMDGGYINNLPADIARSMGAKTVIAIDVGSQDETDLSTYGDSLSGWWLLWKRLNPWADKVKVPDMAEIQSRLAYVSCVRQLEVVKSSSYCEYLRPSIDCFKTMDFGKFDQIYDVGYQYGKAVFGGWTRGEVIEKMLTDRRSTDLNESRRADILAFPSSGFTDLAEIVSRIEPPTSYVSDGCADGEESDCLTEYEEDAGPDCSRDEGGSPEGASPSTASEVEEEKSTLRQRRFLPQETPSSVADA
Description: Inhibition of Pnpla6 in mouse Neuro2a cells at 3 nM after 4 hrs by ABPP-SILAC assay

[6] = target: T4, Serine protease HTRA2, mitochondrial (Mus musculus) (UniProt Q9JIY5)
T4 sequence (whole entry): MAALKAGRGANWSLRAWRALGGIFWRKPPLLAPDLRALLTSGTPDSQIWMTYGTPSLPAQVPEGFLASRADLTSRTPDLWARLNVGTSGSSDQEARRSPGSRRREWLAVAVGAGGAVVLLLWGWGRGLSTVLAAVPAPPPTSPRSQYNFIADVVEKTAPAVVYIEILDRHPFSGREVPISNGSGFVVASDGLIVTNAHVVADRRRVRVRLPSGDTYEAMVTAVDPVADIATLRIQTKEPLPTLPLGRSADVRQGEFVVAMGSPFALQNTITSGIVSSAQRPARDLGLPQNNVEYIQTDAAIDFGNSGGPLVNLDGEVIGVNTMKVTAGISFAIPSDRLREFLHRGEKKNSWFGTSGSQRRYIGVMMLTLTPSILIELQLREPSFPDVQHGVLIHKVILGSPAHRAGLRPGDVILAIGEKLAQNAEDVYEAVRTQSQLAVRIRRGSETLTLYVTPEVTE
Description: Inhibition of Htra2 in mouse Neuro2a cells at 3 nM after 4 hrs by ABPP-SILAC assay

Measured: inhibition

Dipeptidyl peptidase 9 (Mus musculus), sequence (Q8BVG4 whole entry): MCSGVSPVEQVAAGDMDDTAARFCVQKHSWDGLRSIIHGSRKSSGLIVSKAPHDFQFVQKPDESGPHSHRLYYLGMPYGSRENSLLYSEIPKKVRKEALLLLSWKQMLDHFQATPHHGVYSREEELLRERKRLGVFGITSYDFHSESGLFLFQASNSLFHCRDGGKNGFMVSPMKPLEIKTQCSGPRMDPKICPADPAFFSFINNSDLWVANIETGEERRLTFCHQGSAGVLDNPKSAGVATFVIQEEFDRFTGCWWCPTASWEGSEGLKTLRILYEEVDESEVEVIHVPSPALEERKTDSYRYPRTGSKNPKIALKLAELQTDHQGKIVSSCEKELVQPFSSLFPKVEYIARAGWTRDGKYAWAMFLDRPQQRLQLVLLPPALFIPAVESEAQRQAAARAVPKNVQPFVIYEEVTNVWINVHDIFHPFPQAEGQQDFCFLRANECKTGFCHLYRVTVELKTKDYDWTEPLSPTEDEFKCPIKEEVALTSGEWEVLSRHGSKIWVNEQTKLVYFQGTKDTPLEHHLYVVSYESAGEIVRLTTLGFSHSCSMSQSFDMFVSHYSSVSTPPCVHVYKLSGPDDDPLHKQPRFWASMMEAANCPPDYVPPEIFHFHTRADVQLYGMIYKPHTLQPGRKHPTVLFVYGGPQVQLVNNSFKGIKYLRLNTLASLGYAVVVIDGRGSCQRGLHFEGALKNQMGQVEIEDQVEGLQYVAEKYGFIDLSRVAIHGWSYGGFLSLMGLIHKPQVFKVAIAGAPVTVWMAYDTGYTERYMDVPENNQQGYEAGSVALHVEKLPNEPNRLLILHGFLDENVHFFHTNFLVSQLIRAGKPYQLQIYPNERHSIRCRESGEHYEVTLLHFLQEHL

O=C(c1cccc(-c2ccc(-c3cn(C(=O)N4CCCCC4c4ccccc4)nn3)cc2)c1)N1CCCCC1 (racemic)
< 50%: all assays above

O=C(N1CCCCC1c1ccccc1)n1cc(-c2ccc(-c3cccc(CO)c3)cc2)nn1 (racemic)
< 50%: all assays above

O=C(O)c1cccc(-c2ccc(-c3cn(C(=O)N4CCCCC4Cc4ccccc4)nn3)cc2)c1 (racemic)
< 50%: all assays above
